Source: patent publication US7638678B2, “Animal model for perimenopause and menopause and methods of inducing ovarian failure” (The Arizona Board of Regents, priority 2002, dated 2009)

Test system: osteocalcin
Assay: Osteocalcin immunoradiometric assay
Assay type: in vivo, B6C3F1 mice
Conditions: 160 mg/kg i.p. 15 d
Procedure: Osteocalcin measurement: Intact serum Osteocalcin was measured using an immunoradiometric assay (IRMA, Immutopics, San Clemente, Calif.). Assay sensitivity was 0.4 ng/ml and the intra-assay coefficient of variation was 6.7%.

SMILES: C1CC2OC2CC1C1CO1 (stereo not drawn) [VCD, 4-vinylcyclohexene diepoxide]
- Plasma osteocalcin (d46): 131.3 ± 5.4 ng/mL
- Plasma osteocalcin (d58): 156.3 ± 6.1 ng/mL
- Plasma osteocalcin (d120 (not different from control)): 143.4 ± 7.1 ng/mL
